Legend:
[1] = system: exploration response in mice; assay: Psychostimulating activity: increase of exploration response in mice (actimetry); type: in vivo; conditions: Mus musculus, po, per os, dose which increases exploration response by 50%
Source text: The psychostimulating activity was studied by determining the dose which increases the exploration response in mice (actimetry) by 50% (ED50),according to the method described by BOISSIER J.R. and SIMON P. (Arc. Int. Pharmacolyn, 1965, 212-221158).

[2] = Acute toxicity (LD50) in mice, per os; conditions: mouse, in vivo, po
Source text: Acute toxicity was studied by determining the LD50 in mice, the derivatives being administered per os.

[3] = system: dog cardiovascular system; assay: Secondary action on the dog cardiovascular system, intravenous; type: in vivo; conditions: intravenous administration
[4] = system: mortality with pentetrazole in mice; assay: Potentiation of mortality with pentetrazole in mice; type: in vivo; conditions: per os
[5] = system: sleep in mice; assay: Anti-sleep activity in mice; type: in vivo
[6] = system: ptose with reserpine in mice; assay: Ptose antagonism with reserpine in mice; type: in vivo; conditions: Mus musculus, po, per os
[7] = Group toxicity (LD50 grouped mice / LD50 isolated mice); conditions: mouse, in vivo
[8] = Chronic toxicity in rats, oral; type: in vivo; conditions: oral, 80 mg/kg daily, 6 out of 7 days
[9] = system: neurotic depression, neurasthenia and school overwork; assay: Clinical test in neurotic depression, neurasthenia and school overwork; type: in vivo, adults; conditions: 30 mg daily oral, one month
Method: By way of example, clinical tests were carried out on derivatives N° 5 and 21.
Derivative N° 5 was administered at a dose of 30 mg daily in three oral administrations of 10 mg to 6 adults treated for neurotic depression, neurasthenia and school overwork. The following results were obtained after treatment for one month: […]

[10] = system: aggressiveness in mice; assay: Aggressiveness in mice in the electric struggle test; type: in vivo; conditions: Mus musculus, po, per os, read-out: increase in aggressiveness in the electric struggle test ED50
[11] = Anorectic action in rats; type: in vivo
[12] = system: rat isolated duodenum; assay: In vitro papaverine spasmolytic activity: duodenum contractions in rats induced by barium chloride; conditions: for Spasmolytic activity (papaverine hydrochloride = 1): in vitro, rat duodenum, barium chloride, relative to papaverine hydrochloride = 1
Method: The papaverine spasmolytic activity was measured "in vitro" by the concentration ratio: active principle/papaverine hydrochloride concentration, which reduces duodenum contractions in rats, induced by barium chloride, by 50% according to the method of POMARET J. C., SERGANT - ODY M., POURRIAS B. and HUGUET G. (Therapie, 1969, 24, 109-143).
(§1) Table V below gives, by way of example, the complementary pharmacological activities such as antiserotonin, adrenolytic and atropinic activities for derivatives N° 21, 23 and 33, the spasmolytic activity of which is the greatest for the rat isolated duodenum.

[13] = system: paw vessels of the dog; assay: In vivo spasmolytic action on paw vessels of the dog; conditions: papaverine hydrochloride = 1
Source text: as §1

[14] = system: rabbit aorta; assay: In vitro spasmolytic action on the rabbit aorta; conditions: papaverine hydrochloride = 1
Source text: as §1

[15] = system: Guinea-pig ileum; assay: In vitro atropinic action on the Guinea-pig ileum; conditions: Atropine sulfate = 1
Source text: as §1

[16] = system: Guinea-pig seminal vesicle; assay: In vitro adrenolytic action on the Guinea-pig seminal vesicle; conditions: Yohimbine hydrochloride = 1
Source text: as §1

[17] = system: rabbit isolated ear; assay: In vitro spasmolytic action on the rabbit isolated ear; conditions: papaverine hydrochloride = 1
Source text: as §1

## O=C(O)CN1CCN(CCOC(c2ccccc2)c2ccccc2)CC1 [Derivative 1]
[1]
  ED50: 400 mg/kg
[2]
  LD50: > 1600 mg/kg

## O=C(O)CCN1CCN(CCOC(c2ccccc2)c2ccccc2)CC1 [Derivative 2]
[3]
  secondary action on the dog cardiovascular system: devoid of any secondary action
[4]
  Potentiation of mortality with pentetrazole in mice ED50: 320 mg/kg
[5]
  Anti-sleep activity in mice: Nil
[6]
  ED50: 55 mg/kg
[7]
  selectivity ratio: 0.6
[1]
  ED50: 80 mg/kg
[2]
  LD50: 2250 mg/kg

## O=C(O)CCCN1CCN(CCOC(c2ccccc2)c2ccccc2)CC1 [Derivative 3]
[3]
  secondary action on the dog cardiovascular system: devoid of any secondary action
[4]
  Potentiation of mortality with pentetrazole in mice ED50: > 300 mg/kg
[5]
  Anti-sleep activity in mice: Nil
[6]
  ED50: 160 mg/kg
[7]
  selectivity ratio: 1.25
[1]
  ED50: 80 mg/kg
[2]
  LD50: 1500 mg/kg

## O=C(O)CN1CCN(CCOC(c2ccccc2)c2ccc(F)cc2)CC1 (stereo not drawn) [Derivative 4]
[1]
  ED50: 60 mg/kg
[2]
  LD50: 1600 mg/kg

## O=C(O)CCN1CCN(CCOC(c2ccccc2)c2ccc(F)cc2)CC1 (stereo not drawn) [Derivative 5]
[3]
  secondary action on the dog cardiovascular system: devoid of any secondary action
[4]
  Potentiation of mortality with pentetrazole in mice ED50: 160 mg/kg
[5]
  Anti-sleep activity in mice: Nil
[6]
  ED50: 100 mg/kg
[7]
  selectivity ratio: 0.6
[1]
  ED50: 22 mg/kg
[8]
  chronic toxicity: low chronic toxicity
  tolerance in chronic administration: well tolerated
[9]; 6 adults
  presence of a psychostimulating action: 5 out of 6
[9]; neurasthenia (1 case)
  Nil results, number of cases: 1 cases
[9]; neurotic depression (2 cases)
  Excellent results, number of cases: 1 cases
  Good results, number of cases: 1 cases
[9]; school overwork (3 cases)
  Excellent results, number of cases: 2 cases
  Good results, number of cases: 1 cases
[2]
  LD50: 800 mg/kg
[10]
  ED50: 6.5 mg/kg
[11]
  anorectic action in rats: absence of anorectic action

## O=C(O)CCN1CCN(CCOC(c2ccccc2)c2cccc(C(F)(F)F)c2)CC1 (stereo not drawn) [Derivative 6]
[1]
  ED50: 200 mg/kg
[2]
  LD50: 1200 mg/kg

## COc1ccccc1C(OCCN1CCN(CCC(=O)O)CC1)c1ccccc1 (stereo not drawn) [Derivative 7]
[1]
  ED50: > 400 mg/kg
[2]
  LD50: 1400 mg/kg

## O=C(O)CCN1CCN(CCOC(c2ccccc2)c2ccc(Cl)cc2)CC1 (stereo not drawn) [Derivative 8]
[1]
  ED50: 30 mg/kg
[2]
  LD50: 1000 mg/kg

## Cc1ccc(C(OCCN2CCN(CCC(=O)O)CC2)c2ccccc2)cc1 (stereo not drawn) [Derivative 9]
[1]
  ED50: 100 mg/kg
[2]
  LD50: 1400 mg/kg

## COc1cc(C(OCCN2CCN(CCC(=O)O)CC2)c2ccccc2)cc(OC)c1OC (stereo not drawn) [Derivative 10]
[1]
  ED50: > 400 mg/kg
[2]
  LD50: > 1600 mg/kg

## O=C(O)CCN1CCN(CCOC(c2ccc(F)cc2)c2ccc(F)cc2)CC1 [Derivative 11]
[1]
  ED50: 30 mg/kg
[2]
  LD50: 700 mg/kg
[12]
  Spasmolytic activity (papaverine hydrochloride = 1): 0,1

## O=C(O)CCCN1CCN(CCOC(c2ccccc2)c2ccc(F)cc2)CC1 (stereo not drawn) [Derivative 12]
[1]
  ED50: 35 mg/kg
[2]
  LD50: 1200 mg/kg
[12]
  Spasmolytic activity (papaverine hydrochloride = 1): 0,1

## O=C(O)CCCCN1CCN(CCOC(c2ccccc2)c2ccc(F)cc2)CC1 (stereo not drawn) [Derivative 13]
[1]
  ED50: 35 mg/kg
[2]
  LD50: 1400 mg/kg

## COC(=O)CCCCN1CCN(CCOC(c2ccc(F)cc2)c2ccc(F)cc2)CC1 [Derivative 14]
[1]
  ED50: 45 mg/kg
[2]
  LD50: 500 mg/kg
[12]
  Spasmolytic activity (papaverine hydrochloride = 1): 3,5

## CCOC(=O)CN1CCN(CCOC(c2ccc(F)cc2)c2ccc(F)cc2)CC1 [Derivative 15]
[1]
  ED50: 40 mg/kg
[2]
  LD50: 1200 mg/kg
[12]
  Spasmolytic activity (papaverine hydrochloride = 1): 6,5

## CCOC(=O)CCN1CCN(CCOC(c2ccccc2)c2ccccc2)CC1 [Derivative 16]
[3]
  secondary action on the dog cardiovascular system: devoid of any secondary action
[4]
  Potentiation of mortality with pentetrazole in mice ED50: > 400 mg/kg
[5]
  Anti-sleep activity in mice: Nil
[6]
  ED50: 190 mg/kg
[7]
  selectivity ratio: 0.8
[1]
  ED50: 100 mg/kg
[2]
  LD50: 2000 mg/kg
[12]
  Spasmolytic activity (papaverine hydrochloride = 1): 1,5

## CCOC(=O)CCN1CCN(CCOC(c2ccccc2)c2ccccc2Cl)CC1 (stereo not drawn) [Derivative 17]
[1]
  ED50: > 200 mg/kg
[2]
  LD50: 1600 mg/kg
[12]
  Spasmolytic activity (papaverine hydrochloride = 1): 1,5

## CCOC(=O)CCN1CCN(CCOC(c2ccccc2)c2ccc(Cl)cc2)CC1 (stereo not drawn) [Derivative 18]
[1]
  ED50: 30 mg/kg
[2]
  LD50: 1400 mg/kg
[12]
  Spasmolytic activity (papaverine hydrochloride = 1): 1

## CCOC(=O)CCN1CCN(CCOC(c2ccccc2)c2ccc(C)cc2)CC1 (stereo not drawn) [Derivative 19]
[1]
  ED50: > 400 mg/kg
[2]
  LD50: > 1600 mg/kg
[12]
  Spasmolytic activity (papaverine hydrochloride = 1): 1,5

## CCOC(=O)CCN1CCN(CCOC(c2ccccc2)c2ccc([N+](=O)[O-])cc2)CC1 (stereo not drawn) [Derivative 20]
[1]
  ED50: > 400 mg/kg
[2]
  LD50: > 1600 mg/kg
[12]
  Spasmolytic activity (papaverine hydrochloride = 1): 5,5

## CCOC(=O)CCN1CCN(CCOC(c2ccc(C)cc2)c2ccc(F)cc2)CC1 (stereo not drawn) [Derivative 22]
[1]
  ED50: 35 mg/kg
[2]
  LD50: > 1600 mg/kg
[12]
  Spasmolytic activity (papaverine hydrochloride = 1): 5,5

## CCOC(=O)CCCN1CCN(CCOC(c2ccc(F)cc2)c2ccc(F)cc2)CC1 [Derivative 23]
[13]
  In vivo spasmolytic action on paw vessels of the dog: 2
[14]
  In vitro spasmolytic action on the rabbit aorta: 3
[1]
  ED50: 50 mg/kg
[15]
  In vitro atropinic action on the Guinea-pig ileum: > 0,01
[2]
  LD50: 800 mg/kg
[12]
  Spasmolytic activity (papaverine hydrochloride = 1): 13,5
  spasmolytic activity for the rat isolated duodenum (in words): greatest
[16]
  In vitro adrenolytic action on the Guinea-pig seminal vesicle: 3
[17]
  In vitro spasmolytic action on the rabbit isolated ear: 0,3

## CCOC(=O)CCCN1CCN(CCOC(c2ccccc2)c2ccc(F)cc2)CC1 (stereo not drawn) [Derivative 24]
[1]
  ED50: 50 mg/kg
[2]
  LD50: 700 mg/kg
[12]
  Spasmolytic activity (papaverine hydrochloride = 1): 2,5

## CCCCOC(=O)CCN1CCN(CCOC(c2ccc(F)cc2)c2ccc(F)cc2)CC1 [Derivative 25]
[1]
  ED50: 40 mg/kg
[2]
  LD50: 500 mg/kg
[12]
  Spasmolytic activity (papaverine hydrochloride = 1): 0,5

## CCCCCCOC(=O)CCN1CCN(CCOC(c2ccc(F)cc2)c2ccc(F)cc2)CC1 [Derivative 26]
[1]
  ED50: 200 mg/kg
[2]
  LD50: 800 mg/kg
[12]
  Spasmolytic activity (papaverine hydrochloride = 1): 1

## CCOC(=O)CCN1CCN(CCCOC(c2ccccc2)c2ccccc2)CC1 [Derivative 27]
[1]
  ED50: 50 mg/kg
[2]
  LD50: 800 mg/kg
[12]
  Spasmolytic activity (papaverine hydrochloride = 1): 3,5

## CCOC(=O)CCN1CCN(CCCOC(c2ccccc2)c2ccc(F)cc2)CC1 (stereo not drawn) [Derivative 28]
[1]
  ED50: < 100 mg/kg
[2]
  LD50: 800 mg/kg
[12]
  Spasmolytic activity (papaverine hydrochloride = 1): 6,5

## N#CCCN1CCN(CCOC(c2ccccc2)c2ccccc2)CC1 [Derivative 29]
[1]
  ED50: 40 mg/kg
[2]
  LD50: 300 mg/kg
[12]
  Spasmolytic activity (papaverine hydrochloride = 1): 1

## NC(=O)CCN1CCN(CCOC(c2ccccc2)c2ccccc2)CC1 [Derivative 30]
[1]
  ED50: 80 mg/kg
[2]
  LD50: 1000 mg/kg
[12]
  Spasmolytic activity (papaverine hydrochloride = 1): 0,1

## O=C(CN1CCN(CCOC(c2ccccc2)c2ccccc2)CC1)N1CCOCC1 [Derivative 31]
[1]
  ED50: 100 mg/kg
[2]
  LD50: 800 mg/kg
[12]
  Spasmolytic activity (papaverine hydrochloride = 1): 0,5

## COc1ccccc1N1CCN(C(=O)CN2CCN(CCOC(c3ccccc3)c3ccccc3)CC2)CC1 [Derivative 32]
[1]
  ED50: 100 mg/kg
[2]
  LD50: 1200 mg/kg
[12]
  Spasmolytic activity (papaverine hydrochloride = 1): 2

## O=C(CN1CCN(CCOC(c2ccccc2)c2ccccc2)CC1)N1CCN(Cc2ccc3c(c2)OCO3)CC1 [Derivative 33, 1-(piperonylpiperazinocarbonylmethyl)-4-(2-benzhydryloxyethyl)piperazine trimaleate]
[13]
  In vivo spasmolytic action on paw vessels of the dog: 9
[14]
  In vitro spasmolytic action on the rabbit aorta: 5
[1]
  ED50: 25 mg/kg
[15]
  In vitro atropinic action on the Guinea-pig ileum: > 0,01
[2]
  LD50: 600 mg/kg
[12]
  Spasmolytic activity (papaverine hydrochloride = 1): 10,5
  spasmolytic activity for the rat isolated duodenum (in words): greatest
[16]
  In vitro adrenolytic action on the Guinea-pig seminal vesicle: 6
[17]
  In vitro spasmolytic action on the rabbit isolated ear: 0,5

## O=C(CN1CCN(CCOC(c2ccc(F)cc2)c2ccc(F)cc2)CC1)N1CCN(Cc2ccc3c(c2)OCO3)CC1 [Derivative 34]
[1]
  ED50: 160 mg/kg
[2]
  LD50: > 1600 mg/kg
[12]
  Spasmolytic activity (papaverine hydrochloride = 1): 1,5

## CCCC(OCCN1CCN(CCC(=O)O)CC1)c1ccccc1 (stereo not drawn) [Derivative 35]
[1]
  ED50: 60 mg/kg
[2]
  LD50: > 1600 mg/kg

## CCCC(OCCN1CCN(CCC(=O)OCC)CC1)c1ccc(F)cc1 (stereo not drawn) [Derivative 36]
[1]
  ED50: > 100 mg/kg
[2]
  LD50: 1600 mg/kg
[12]
  Spasmolytic activity (papaverine hydrochloride = 1): 5
